Results on four compounds are retold here after ChEMBL document CHEMBL1201862, “PubChem BioAssay data set” (2004).

Each structure is given as a SMILES string. The source made the active and inactive calls.

Experiment [1] in a line: MITF Orthogonal Assay: SK-MEL-5 CTG Assay Measured in Cell-Based System Using Plate Reader - 2084-02_Inhibitor_Dose_DryPowder_Activity_Set5. In kind it is functional.
Experiment [2] in a line: viability loss in MITF-independent A375 cells – cell-based, CellTiter-Glo luminescence, dry powder, set 6, counter-screen for MITF inhibitor project, dose response (AID 624488). In kind it is functional. The note with it: A-375. For orientation: Cellular ATP, detected with luciferase, serves as a proxy for viable cell number.
In another experiment the target is Procathepsin L (Homo sapiens, UniProt P07711).
Experiment [3] concerns the target T1, Dual specificity protein phosphatase 6 (Rattus norvegicus, UniProt Q64346).
T1 sequence (Q64346 whole entry): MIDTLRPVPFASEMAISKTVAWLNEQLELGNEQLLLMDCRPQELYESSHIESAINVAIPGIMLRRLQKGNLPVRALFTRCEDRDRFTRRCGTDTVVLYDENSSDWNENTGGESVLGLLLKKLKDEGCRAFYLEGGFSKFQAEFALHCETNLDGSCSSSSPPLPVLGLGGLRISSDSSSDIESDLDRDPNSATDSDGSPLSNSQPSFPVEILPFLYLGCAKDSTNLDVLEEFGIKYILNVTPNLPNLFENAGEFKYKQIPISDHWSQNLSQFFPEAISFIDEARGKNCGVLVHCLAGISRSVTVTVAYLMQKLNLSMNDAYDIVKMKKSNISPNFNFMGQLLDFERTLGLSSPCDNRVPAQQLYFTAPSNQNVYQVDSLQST
Description: inhibition of rat DUSP6 enzyme activity – biochemical, in vitro, primary screen (AID 425).

Experiment [4] deals with Intestinal-type alkaline phosphatase (Mus musculus, UniProt P24822). Description: mouse intestinal alkaline phosphatase activators, dose response, biochemical, luminescence, uHTS hits (AID 488783). In kind it is functional.
Experiment [5] concerns the target T2, Rac GTPase-activating protein 1 (Homo sapiens, UniProt Q9H0H5).
T2 sequence (Q9H0H5 whole entry): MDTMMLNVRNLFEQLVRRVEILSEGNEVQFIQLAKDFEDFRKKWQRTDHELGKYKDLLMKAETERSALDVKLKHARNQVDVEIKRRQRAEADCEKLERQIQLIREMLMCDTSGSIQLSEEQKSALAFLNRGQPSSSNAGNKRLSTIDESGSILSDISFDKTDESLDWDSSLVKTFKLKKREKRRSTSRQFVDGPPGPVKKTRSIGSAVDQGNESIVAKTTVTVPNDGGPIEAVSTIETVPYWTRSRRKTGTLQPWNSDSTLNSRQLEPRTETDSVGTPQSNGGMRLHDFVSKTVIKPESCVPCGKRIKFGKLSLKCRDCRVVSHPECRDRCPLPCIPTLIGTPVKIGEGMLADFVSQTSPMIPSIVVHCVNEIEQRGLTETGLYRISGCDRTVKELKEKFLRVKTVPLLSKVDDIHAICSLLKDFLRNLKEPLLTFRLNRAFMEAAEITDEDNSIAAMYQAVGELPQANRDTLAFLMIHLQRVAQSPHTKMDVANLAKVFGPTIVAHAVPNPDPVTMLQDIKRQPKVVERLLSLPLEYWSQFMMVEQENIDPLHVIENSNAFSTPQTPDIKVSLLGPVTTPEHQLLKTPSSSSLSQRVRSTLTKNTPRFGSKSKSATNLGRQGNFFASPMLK
Description: blockers of MgcRacGAP-driven Rac1 GTP hydrolysis – biochemical, ADP Hunter fluorescence, primary and confirmatory, confirmation (AID 624330). In kind it is functional.

For another experiment, the target named is Ephrin type-A receptor 4 (Mus musculus, UniProt Q03137). The experiment in a line: EphA4 ligand-binding antagonists – biochemical, colorimetric, mouse EphA4, primary screen (AID 689). In kind it is functional.
Sequence of Ephrin type-A receptor 4 (Q03137 whole entry): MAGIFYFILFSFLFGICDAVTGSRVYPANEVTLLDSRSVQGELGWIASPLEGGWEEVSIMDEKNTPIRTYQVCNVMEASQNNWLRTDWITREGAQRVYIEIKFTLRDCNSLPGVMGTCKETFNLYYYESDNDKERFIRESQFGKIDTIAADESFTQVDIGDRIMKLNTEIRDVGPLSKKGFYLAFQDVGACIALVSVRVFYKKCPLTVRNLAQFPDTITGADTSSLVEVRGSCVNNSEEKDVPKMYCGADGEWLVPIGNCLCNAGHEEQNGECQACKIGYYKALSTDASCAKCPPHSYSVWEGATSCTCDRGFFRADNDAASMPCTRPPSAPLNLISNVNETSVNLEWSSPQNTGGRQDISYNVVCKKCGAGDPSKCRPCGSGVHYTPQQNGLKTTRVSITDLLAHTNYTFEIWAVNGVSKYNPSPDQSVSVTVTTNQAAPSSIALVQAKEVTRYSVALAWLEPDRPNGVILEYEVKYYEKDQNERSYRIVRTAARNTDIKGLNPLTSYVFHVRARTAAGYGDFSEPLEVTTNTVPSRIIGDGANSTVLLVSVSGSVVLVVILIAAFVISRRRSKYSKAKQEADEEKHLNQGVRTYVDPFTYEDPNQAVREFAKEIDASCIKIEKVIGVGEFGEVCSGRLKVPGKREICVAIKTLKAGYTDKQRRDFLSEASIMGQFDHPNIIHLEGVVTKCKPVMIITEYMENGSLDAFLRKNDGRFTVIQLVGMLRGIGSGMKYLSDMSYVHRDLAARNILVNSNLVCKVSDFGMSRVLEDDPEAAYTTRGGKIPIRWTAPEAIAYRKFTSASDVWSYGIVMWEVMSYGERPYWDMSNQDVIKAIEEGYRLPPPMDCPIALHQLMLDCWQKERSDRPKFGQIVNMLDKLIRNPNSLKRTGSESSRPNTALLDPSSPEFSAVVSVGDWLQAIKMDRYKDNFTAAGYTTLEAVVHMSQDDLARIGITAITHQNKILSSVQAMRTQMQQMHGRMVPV
Another experiment has as its target Nonstructural protein 1 (Influenza A virus, UniProt Q194T2). In kind it is functional, Influenza A virus (A/California/07/2009(H1N1)).
The target of experiment [6] is Tyrosine-protein kinase JAK2 (Homo sapiens, UniProt O60674). In kind it is functional.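 Note: JAK2 tested as one member of a kinase panel.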
Experiment [7] deals with Protein kinase C zeta type (Homo sapiens, UniProt Q05513). In kind it is functional.
In experiment [8] the target is Serine/threonine-protein kinase PLK4 (Homo sapiens, UniProt O00444). In kind it is functional.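 Note: PLK4 measured as one member of a kinome-wide kinase profiling panel.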
The target in experiment [9] is Tyrosine-protein kinase SYK (Homo sapiens, UniProt P43405). In kind it is functional.
The target of experiment [10] is Serine/threonine-protein kinase 17A (Homo sapiens, UniProt Q9UEE5). In kind it is functional.
Sequence of Serine/threonine-protein kinase 17A (Q9UEE5 whole entry): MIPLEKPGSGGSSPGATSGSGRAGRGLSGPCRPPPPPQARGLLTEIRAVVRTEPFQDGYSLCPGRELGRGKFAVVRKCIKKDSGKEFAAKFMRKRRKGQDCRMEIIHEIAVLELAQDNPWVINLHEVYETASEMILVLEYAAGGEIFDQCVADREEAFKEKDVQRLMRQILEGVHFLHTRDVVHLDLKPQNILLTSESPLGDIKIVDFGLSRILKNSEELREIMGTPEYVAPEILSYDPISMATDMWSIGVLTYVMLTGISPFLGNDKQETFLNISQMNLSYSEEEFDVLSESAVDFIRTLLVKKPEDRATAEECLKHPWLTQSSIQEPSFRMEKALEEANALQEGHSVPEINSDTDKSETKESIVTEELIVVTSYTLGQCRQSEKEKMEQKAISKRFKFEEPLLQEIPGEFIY
A further experiment addresses SRSF protein kinase 1 (Homo sapiens, UniProt Q96SB4). In kind it is functional.
In experiment [11] the target is Casein kinase I isoform gamma-1 (Homo sapiens, UniProt Q9HCP0). In kind it is functional.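 Note: measured as the CSNK1G1 member of a kinome profiling panel.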
Experiment [12] has as its target Serine/threonine-protein kinase pim-3 (Homo sapiens, UniProt Q86V86). In kind it is functional.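 Note: value obtained as one member of a broad kinase panel profiling effort.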
The target of another experiment is Activated CDC42 kinase 1 (Homo sapiens, UniProt Q07912). Description: Navigating the Kinome. Panel member name: ACK1. In kind it is functional.
Sequence of Activated CDC42 kinase 1 (Q07912 whole entry): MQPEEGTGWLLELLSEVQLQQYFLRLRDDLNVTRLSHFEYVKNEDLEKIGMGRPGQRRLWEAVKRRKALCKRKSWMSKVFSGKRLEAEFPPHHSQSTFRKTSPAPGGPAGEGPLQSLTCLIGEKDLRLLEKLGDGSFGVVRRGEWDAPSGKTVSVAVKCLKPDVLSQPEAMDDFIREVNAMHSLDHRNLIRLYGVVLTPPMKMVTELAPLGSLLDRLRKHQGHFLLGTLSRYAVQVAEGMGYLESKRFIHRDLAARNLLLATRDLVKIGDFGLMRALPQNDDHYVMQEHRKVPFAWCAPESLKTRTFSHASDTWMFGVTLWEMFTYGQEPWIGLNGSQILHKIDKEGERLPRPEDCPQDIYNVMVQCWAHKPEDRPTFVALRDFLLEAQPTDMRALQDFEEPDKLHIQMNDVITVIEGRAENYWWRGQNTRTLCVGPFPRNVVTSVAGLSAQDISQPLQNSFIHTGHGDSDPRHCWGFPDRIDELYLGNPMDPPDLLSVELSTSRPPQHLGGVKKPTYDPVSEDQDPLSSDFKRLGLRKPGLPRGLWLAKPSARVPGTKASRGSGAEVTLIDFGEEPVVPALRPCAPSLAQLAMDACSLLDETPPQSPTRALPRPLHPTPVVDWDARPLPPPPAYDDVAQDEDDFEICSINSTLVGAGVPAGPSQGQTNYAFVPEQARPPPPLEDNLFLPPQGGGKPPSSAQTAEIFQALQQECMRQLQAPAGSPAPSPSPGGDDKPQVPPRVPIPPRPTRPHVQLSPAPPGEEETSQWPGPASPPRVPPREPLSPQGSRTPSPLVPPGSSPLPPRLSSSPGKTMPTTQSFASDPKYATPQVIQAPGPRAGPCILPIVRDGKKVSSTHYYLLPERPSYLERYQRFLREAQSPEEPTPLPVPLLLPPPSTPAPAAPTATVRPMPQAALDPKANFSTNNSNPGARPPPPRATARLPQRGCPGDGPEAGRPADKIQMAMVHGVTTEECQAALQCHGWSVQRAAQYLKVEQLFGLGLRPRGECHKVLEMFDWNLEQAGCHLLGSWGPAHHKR
The target of experiment [13] is MAP kinase-activated protein kinase 3 (Homo sapiens, UniProt Q16644). In kind it is functional.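 Note: value comes from a kinome-wide profiling panel in which MAPKAPK3 is one of the panel members.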
Sequence of MAP kinase-activated protein kinase 3 (Q16644 whole entry): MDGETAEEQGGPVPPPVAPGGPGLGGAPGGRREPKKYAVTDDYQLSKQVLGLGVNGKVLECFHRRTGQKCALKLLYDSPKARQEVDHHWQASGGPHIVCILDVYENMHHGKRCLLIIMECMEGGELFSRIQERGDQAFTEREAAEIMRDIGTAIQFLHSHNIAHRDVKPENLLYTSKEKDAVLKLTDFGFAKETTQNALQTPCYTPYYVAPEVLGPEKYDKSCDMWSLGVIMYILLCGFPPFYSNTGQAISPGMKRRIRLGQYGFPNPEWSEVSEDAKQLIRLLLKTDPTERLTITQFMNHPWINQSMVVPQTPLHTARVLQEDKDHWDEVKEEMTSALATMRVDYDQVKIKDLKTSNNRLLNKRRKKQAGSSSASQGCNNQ
Experiment [14] has as its target Serine/threonine-protein kinase Nek4 (Homo sapiens, UniProt P51957). In kind it is functional.
Experiment [15] deals with cAMP-dependent protein kinase catalytic subunit PRKX (Homo sapiens, UniProt P51817). In kind it is functional.
Sequence of cAMP-dependent protein kinase catalytic subunit PRKX (P51817 whole entry): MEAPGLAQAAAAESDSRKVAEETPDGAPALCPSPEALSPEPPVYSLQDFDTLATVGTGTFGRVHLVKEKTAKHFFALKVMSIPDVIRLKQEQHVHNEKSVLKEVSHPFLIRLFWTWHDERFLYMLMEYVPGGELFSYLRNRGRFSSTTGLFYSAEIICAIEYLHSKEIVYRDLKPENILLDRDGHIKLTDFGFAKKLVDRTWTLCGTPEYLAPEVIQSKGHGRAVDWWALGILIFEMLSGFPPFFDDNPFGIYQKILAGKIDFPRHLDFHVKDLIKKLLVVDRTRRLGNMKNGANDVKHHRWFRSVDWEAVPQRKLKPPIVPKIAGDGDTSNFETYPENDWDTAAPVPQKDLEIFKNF
The target of another experiment is Focal adhesion kinase 1 (Homo sapiens, UniProt Q05397). In kind it is functional.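 Note: measured as one member of a kinome panel.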
The target in experiment [16] is Cyclin-dependent kinase 7 (Homo sapiens, UniProt P50613). In kind it is functional.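 Note: value comes from a kinome-wide kinase profiling panel in which CDK7 is one member.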
The target in experiment [17] is Serine/threonine-protein kinase PLK1 (Homo sapiens, UniProt P53350). In kind it is functional.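 Note: PLK1 measured as one member of a kinome-wide profiling panel.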
Sequence of Serine/threonine-protein kinase PLK1 (P53350 whole entry): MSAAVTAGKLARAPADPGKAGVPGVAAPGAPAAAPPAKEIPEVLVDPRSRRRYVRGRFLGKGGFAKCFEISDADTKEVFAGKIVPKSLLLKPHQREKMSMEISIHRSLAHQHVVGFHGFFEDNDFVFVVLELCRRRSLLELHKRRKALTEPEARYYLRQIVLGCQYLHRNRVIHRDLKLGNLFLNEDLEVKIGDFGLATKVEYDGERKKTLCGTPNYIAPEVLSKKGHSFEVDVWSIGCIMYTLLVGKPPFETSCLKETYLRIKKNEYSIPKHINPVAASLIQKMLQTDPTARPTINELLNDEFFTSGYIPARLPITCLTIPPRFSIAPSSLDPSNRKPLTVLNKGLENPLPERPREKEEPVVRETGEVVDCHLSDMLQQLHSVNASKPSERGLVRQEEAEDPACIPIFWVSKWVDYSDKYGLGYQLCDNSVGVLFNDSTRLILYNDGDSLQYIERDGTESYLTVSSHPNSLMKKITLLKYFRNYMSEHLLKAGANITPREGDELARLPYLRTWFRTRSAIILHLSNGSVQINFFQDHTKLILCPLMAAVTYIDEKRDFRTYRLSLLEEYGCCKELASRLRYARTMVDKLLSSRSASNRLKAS
Experiment [18] deals with BDNF/NT-3 growth factors receptor (Homo sapiens, UniProt Q16620). In kind it is functional.
For experiment [19], the target named is Lymphokine-activated killer T-cell-originated protein kinase (Homo sapiens, UniProt Q96KB5). In kind it is functional.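 Note: value comes from a kinase panel screen in which TOPK was one of the panel members.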
For experiment [20], the target named is Macrophage-stimulating protein receptor (Homo sapiens, UniProt Q04912). The experiment in a line: Navigating the Kinome. Panel member name: MST1R. In kind it is functional.
For experiment [21], the target named is Leukocyte tyrosine kinase receptor (Homo sapiens, UniProt P29376). The experiment in a line: Navigating the Kinome. Panel member name: LTK. In kind it is functional.
Sequence of Leukocyte tyrosine kinase receptor (P29376 whole entry): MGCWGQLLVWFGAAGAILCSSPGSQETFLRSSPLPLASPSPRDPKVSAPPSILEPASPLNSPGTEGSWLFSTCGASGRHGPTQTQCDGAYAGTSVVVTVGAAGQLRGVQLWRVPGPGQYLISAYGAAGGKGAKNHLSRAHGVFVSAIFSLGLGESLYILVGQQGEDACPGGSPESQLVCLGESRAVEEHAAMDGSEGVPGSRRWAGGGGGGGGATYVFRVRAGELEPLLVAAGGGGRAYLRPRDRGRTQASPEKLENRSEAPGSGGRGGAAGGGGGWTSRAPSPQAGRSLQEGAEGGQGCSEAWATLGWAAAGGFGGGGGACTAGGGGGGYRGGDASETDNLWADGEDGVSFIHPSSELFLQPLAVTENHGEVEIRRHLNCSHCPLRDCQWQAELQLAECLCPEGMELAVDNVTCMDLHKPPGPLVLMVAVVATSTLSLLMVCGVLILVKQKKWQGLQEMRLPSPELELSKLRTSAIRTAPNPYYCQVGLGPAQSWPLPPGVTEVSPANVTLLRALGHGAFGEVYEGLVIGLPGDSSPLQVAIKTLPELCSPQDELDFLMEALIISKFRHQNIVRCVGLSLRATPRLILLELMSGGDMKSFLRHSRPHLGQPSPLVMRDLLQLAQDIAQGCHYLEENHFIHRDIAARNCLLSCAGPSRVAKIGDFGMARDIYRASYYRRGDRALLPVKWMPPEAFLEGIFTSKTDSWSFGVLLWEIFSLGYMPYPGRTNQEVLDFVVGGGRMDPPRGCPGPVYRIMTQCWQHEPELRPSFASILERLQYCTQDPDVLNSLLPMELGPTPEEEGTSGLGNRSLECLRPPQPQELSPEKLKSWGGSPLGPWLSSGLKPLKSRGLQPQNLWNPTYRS

The term AC50 denotes the midpoint of the concentration-response curve, whichever way the signal moves. Usually IC50 stands for the midpoint of a concentration-inhibition curve. Usually EC50 stands for the concentration needed to bring the measured effect to its halfway point. Broadly, the Ki is a dissociation constant, usually derived from enzyme kinetics or from competition with a known ligand.

Take `C=CCNC1=C(Cl)C(=O)c2ccccc2C1=O`: the AC50 is 1700 nM (active) in experiment [1] and 50400 nM (active) in experiment [2].
For the compound `CS(=O)(=O)c1ccc2c(c1)SC1=NC(=O)/C(=C/c3ccc(O)c(O)c3)C(=N)N12`, the half-inhibitory concentration (IC50) is > 59600 nM (not active) against Procathepsin L, 113000 nM (not active) in experiment [3] and 38100 nM (active) in [5]. The EC50 in experiment [4] was 6350 nM (active).
On to `CCOC(=O)C(C(=O)OCC)c1cc(Br)c2noc3c2c1C(=O)c1ccccc1-3`, for which the results for the IC50 at Ephrin type-A receptor 4 and on Nonstructural protein 1 were 300 nM (active) and 35500 nM (active), respectively.
For `COc1ccc(C(=O)Nc2n[nH]c3ccc(-c4cn(Cc5ccccc5)nn4)cc23)cc1OC`, the Ki in experiment [6] was 126 nM (active); in [7], > 7940 nM (inactive); in experiment [8], 79.4 nM (active); in [9], 20 nM (active); in [10], 50.1 nM (active); on SRSF protein kinase 1, 1580 nM (active). Also, the Ki was 25.1 nM (active) in experiment [11]; 1260 nM (active) in experiment [12]; > 3980 nM (inactive) on Activated CDC42 kinase 1; > 10000 nM (inactive) in [13]; 1000 nM (active) in experiment [14]; 50.1 nM (active) in experiment [15]. For the same compound, the Ki on Focal adhesion kinase 1 is > 6310 nM (inactive); in [16] it was 126 nM (active); in experiment [17], > 7940 nM (inactive); in experiment [18] it was > 5010 nM (inactive); in [19], > 10000 nM (inactive); in experiment [20] it was 794 nM (active). Also, in experiment [21], the Ki was > 2510 nM (inactive).
